Measured values as given in PMC10569065, “Major distinctions between the two oligopeptide permease systems of Bacillus subtilis with respect to signaling, development and evolutionary divergence” (Microbiology, 2023).
Where no end group is shown, it is not given here.

Key:
[1] = system: App permease (App-only strain O-;A+, expressing RapC, RapF or RapP); experiment: Co-culture PsrfA-3×yfp reporter response to added Phr peptide, App-only strain; assay type: cell-based, Bacillus subtilis; conditions: co-culture with Opp-only strain, SMM, 3 h after peptide addition, PhrP increase at concentrations higher than 1 µM
Procedure: (§1) Flow cytometry was performed to quantify gene expression at the single-cell level, using a Beckman-Coulter Gallios flow-cytometer equipped with four lasers (405 nm, 488 nm co-linear with 561 nm, 638 nm). The emission filters used were as follows: BFP – 450/50, YFP – 525/40, mCherry – 620/30. Two methods were used to distinguish between co-cultured cells. Strains coding for rapP where transformed by plasmids carrying either an mCherry or mTag2-BFP genes under a constitutive promoter. For the rest of the strains, the same constructs were integrated into the bacterial genome at the lacA locus. YFP levels were measured relative to a set voltage, which was approximately set such that a value of 1 will be given to autofluorescence of strain PY79 in SMM medium.
(§2) Cells were grown to OD600 <0.1, in SMM medium containing trace elements and glucose, then diluted by a factor of 10^6 or 10^7 into fresh SMM medium and grown for about 16 h in exponential phase. In co-culture gene-expression experiments, each strain was grown from a single colony in SMM to OD600 <0.1 or diluted to 0.1 prior to strain mixing. The two strains were mixed at equal volumes and then diluted by a factor of 10^6 or 10^7 in fresh SMM medium. Samples were taken from cultures at several time-points. At each time point OD600nm was measured using a spectrophotometer and fluorescence was measured using a flow cytometry. […]

[2] = molecular target: T1, Opp permease (Opp-only strain O+;A-, expressing RapC, RapF or RapP) (Bacillus subtilis, UniProt P24141); experiment: Co-culture PsrfA-3×yfp reporter response to added Phr peptide, Opp-only strain; assay type: cell-based
T1 construct: full deletion mutants of the App (Opp-only; O^+;A^-) and Opp (App-only; O^-;A^+) operons; endogenous in cells; host or cells: Bacillus subtilis 3610 (plasmid-free), Opp-only strains O+;A- (AES7204, AES7202, AES5524, AES7207)
Procedure: as §1, §2

[3] = molecular target: T2, App permease, App^3610 allele (App-only strain O-;A+, AES7075, expressing PlcR) (Bacillus subtilis, UniProt P42061); experiment: Co-culture PplcA-3×yfp reporter of PlcR receivers, App-only strain (App3610); assay type: cell-based
T2 construct: full deletion mutants of the App (Opp-only; O^+;A^-) and Opp (App-only; O^-;A^+) operons; endogenous in cells; host or cells: Bacillus subtilis 3610 (plasmid-free), App-only strain O-;A+ (AES7075)
Procedure: as §1
as §2, with “The two strains were mixed at equal volumes and then diluted by a factor of 10^6 or 10^7 in fresh SMM medium. Samples were taken from cultures at several time-points.” left out
(§3) Fig. 8. […] YFP levels were measured for single cells using flow cytometry 3 h after the peptide was added. […] Biological repeats at the same concentrations were measured on different days. […]

[4] = molecular target: T3, Opp permease (Opp-only strain O+;A-, AES7207, expressing PlcR) (Bacillus subtilis, UniProt P24141); experiment: Co-culture PplcA-3×yfp reporter of PlcR receivers, Opp-only strain; assay type: cell-based
T3 construct: full deletion mutants of the App (Opp-only; O^+;A^-) and Opp (App-only; O^-;A^+) operons; endogenous in cells; host or cells: Bacillus subtilis 3610 (plasmid-free), Opp-only strains O+;A- (AES7204, AES7202, AES5524, AES7207)
Procedure: as §1
as §2, with “The two strains were mixed at equal volumes and then diluted by a factor of 10^6 or 10^7 in fresh SMM medium. Samples were taken from cultures at several time-points.” left out
as §3

[5] = system: App permease (App-only strain O-;A+, AES7410, expressing RapA); experiment: Co-culture PspoIIG-3×yfp early sporulation reporter, RapA strain, App-only; assay type: cell-based, Bacillus subtilis; conditions: maximal peptide concentration, SMM with very low glucose, 3 h
Procedure: as §1
(§4) Cells were grown to OD600 <0.1, in SMM medium containing trace elements and glucose, then diluted by a factor of 10^6 or 10^7 into fresh SMM medium and grown for about 16 h in exponential phase. […] At each time point OD600nm was measured using a spectrophotometer and fluorescence was measured using a flow cytometry. […]
(§5) Fig. 5. […] ON cells are determined as the cells that have expressed P spoIIG-3 ×yfp 10-fold higher than background. […] YFP levels were measured for single cells using flow cytometry 3 h after the peptide was added to co-culture of both strains, App and Opp. […]

[6] = system: Opp permease (Opp-only strain O+;A-, AES7413, expressing RapA); experiment: Co-culture PspoIIG-3×yfp early sporulation reporter, RapA strain, Opp-only; assay type: cell-based, Bacillus subtilis; conditions: 10 µM peptide, SMM with very low glucose, 3 h, ON = 10-fold higher than background
Procedure: as §1, §4, §5

[7] = system: ɸ3T infection of B. subtilis 3610 plasmid-free permease variants; experiment: Phage ɸ3T infection dynamics (optical density) in presence of arbitrium peptide; assay type: cell-based, Bacillus subtilis; conditions: ɸ3T m.o.i.=0.1 in LB
Procedure: Overnight culture grown in LB of the appropriate strain was diluted by a factor of 1 : 100 into fresh containing 0.1 mM MnCl2 and 5 mM MgCl2. The strains were then grown at 37 °C with shaking at 220 r.p.m. Upon reaching an of OD600=0.3, the strains infected with free ɸ3T at m.o.i.=0.1 and supplemented with 10 µM of the synthetic peptide SAIRGA. Optical density measurements at a wavelength of 600 nm were performed in a 96-well plate using a plate reader (PerkinElmer VICTOR Nivo 622 Multimode Plate Reader).
We wondered whether App is capable of transporting the signalling molecules of arbitrium, the second RRNPP system found in B. subtilis phages. The B. subtilis phage φ3T utilizes an arbitrium system with the small peptide SAIRGA to control the lysis-lysogeny and induction decisions [[17, 22]]. Increased signal concentration tilts the decision towards lysogeny. To further examine the impact of App and Opp on quorum-sensing-dependent activation of φ3T horizontal transfer, we utilized a plate reader to examine the phage infection dynamics by monitoring its impact on optical density during infection of the different variants in Lysogeny Broth (LB) medium.
Fig. 4. […] Growth curves are represented as the mean optical density (dark colour) and its error (light grey) as a function of time (minutes) taken using a plate-reader. […]

[8] = system: App permease; conditions: previous work; cited from earlier work
Source text: App was also as effective as Opp in uptaking the PapR pentapeptide, but not in importing the PhrC/F/P pentapeptides. Previous work has identified several App transported peptides, including the nonapeptide […] [[2, 50]].

T1 sequence (P24141 21-545): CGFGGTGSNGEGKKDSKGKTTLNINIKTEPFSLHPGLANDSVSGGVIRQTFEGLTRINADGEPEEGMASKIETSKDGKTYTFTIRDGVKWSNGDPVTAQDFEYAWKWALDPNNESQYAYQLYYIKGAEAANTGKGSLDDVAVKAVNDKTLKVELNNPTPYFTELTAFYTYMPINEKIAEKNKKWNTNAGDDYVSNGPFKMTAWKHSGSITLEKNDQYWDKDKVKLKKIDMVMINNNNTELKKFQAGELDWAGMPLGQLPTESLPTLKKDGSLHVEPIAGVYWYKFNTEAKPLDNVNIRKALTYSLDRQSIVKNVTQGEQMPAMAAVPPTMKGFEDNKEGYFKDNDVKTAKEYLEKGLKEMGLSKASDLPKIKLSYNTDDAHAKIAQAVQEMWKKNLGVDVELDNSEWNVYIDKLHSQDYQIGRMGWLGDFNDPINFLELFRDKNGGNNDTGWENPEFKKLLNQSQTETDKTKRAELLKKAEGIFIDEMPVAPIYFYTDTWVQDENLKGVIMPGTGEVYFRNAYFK
T2 sequence (P42061 24-543): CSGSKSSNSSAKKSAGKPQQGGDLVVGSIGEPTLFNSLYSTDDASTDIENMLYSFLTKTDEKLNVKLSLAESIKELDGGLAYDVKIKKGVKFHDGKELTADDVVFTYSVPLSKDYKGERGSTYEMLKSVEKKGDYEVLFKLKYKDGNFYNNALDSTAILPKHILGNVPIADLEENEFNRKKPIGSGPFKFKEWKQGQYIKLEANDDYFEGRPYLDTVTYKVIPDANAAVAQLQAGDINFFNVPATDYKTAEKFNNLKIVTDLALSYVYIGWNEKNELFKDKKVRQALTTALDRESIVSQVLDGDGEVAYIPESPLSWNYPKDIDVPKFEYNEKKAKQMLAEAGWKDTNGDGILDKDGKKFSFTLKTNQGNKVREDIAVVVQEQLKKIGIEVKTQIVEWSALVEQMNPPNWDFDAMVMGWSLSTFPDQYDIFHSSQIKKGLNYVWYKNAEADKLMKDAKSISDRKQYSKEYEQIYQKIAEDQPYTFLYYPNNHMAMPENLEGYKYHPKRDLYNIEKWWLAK
T3 sequence (P24141 21-545): as the sequence (P24141 21-545) above

Substance: QRGMI [PhrF]
- YFP levels (PsrfA-3×yfp) with increasing peptide concentrations, App-only strains [1]: marginally increased
- EC50 [2]: < 10 nM

Substance: LPFEF [penta-PapR]
- EC50 [3]: 290 nM
- EC50 [4]: 650 nM

Substance: ARNQT [PhrA, synthetic PhrA signalling pentapeptide (ARNQT) of the RapA-PhrA system]
- fraction of sporulating cells (ON cells, PspoIIG-3×yfp) [5]: 0.2%
- percentage of cells with high YFP levels (ON cells, PspoIIG-3×yfp) [6]: ~ 20%

Substance: SAIRGA [synthetic arbitrium hexapeptide of B. subtilis phage φ3T]
- optical density on ɸ3T infection with peptide, App-only (O-;A+) ([7]; AES6372, 10 µM peptide): marked reduction in optical density
- lysis on ɸ3T infection with peptide, WT (O+;A+) ([7]; WT DS2569, 10 µM peptide added at OD600=0.3, plate reader OD600): did not lyse

Substance: ERGMT [PhrC]
- YFP levels (PsrfA-3×yfp) with increasing peptide concentrations, App-only strains [1]: marginally increased
- EC50 [2]: < 10 nM

Substance: FLEEI [pentapeptide reported in previous work as transported by App]
- transport by App [8]: able to transport

Substance: FGFG [tetrapeptide reported in previous work as transported by App]
- transport by App [8]: able to transport
